Experimental data: ChEMBL document CHEMBL4665648, “Potent and selective inhibitors of receptor-interacting protein kinase 1 that lack an aromatic back pocket group” (Bioorg Med Chem Lett, 2019)

Columns and labels:
[1] = target: Inhibitor of nuclear factor kappa-B kinase subunit alpha (Homo sapiens) (UniProt O15111); assay: Inhibition of recombinant human His-tagged full length IKKalpha expressed in baculovirus expression system at 10 uM incubated for 60 mins by Adapta assay relative to control
[2] = target: Protein kinase C beta type (Homo sapiens) (UniProt P05771); assay: Inhibition of recombinant human His-tagged full length PKCbeta1 expressed in insect expression system using Ser/Thr 07 as substrate at 10 uM incubated for 60 mins by Z'-lyte assay relative to control
[3] = target: Myosin light chain kinase (Homo sapiens) (UniProt Q32MK0); assay: Inhibition of MYLK3 (unknown origin) by selectscreen kinase assay; conditions: dose 10.0 µM, time 60.0 min
[4] = target: Tyrosine-protein kinase Fes/Fps (Homo sapiens) (UniProt P07332); assay: Inhibition of recombinant human His-tagged full length FES expressed in baculovirus expression system using Tyr 01 as substrate at 10 uM incubated for 60 mins by Z'-Lyte assay relative to control
[5] = target: Activin receptor type-1B (Homo sapiens) (UniProt P36896); assay: Inhibition of recombinant human GST-tagged ACVR1B (150 to 505 residues) expressed in baculovirus expression system using Ser/Thr 16 as substrate at 10 uM incubated for 60 mins by Z'-Lyte assay relative to control
[6] = target: Serine/threonine-protein kinase MARK1 (Homo sapiens) (UniProt Q9P0L2); assay: Inhibition of recombinant human GST-tagged full length MARK1 expressed in baculovirus expression system using Ser/Thr 21 as substrate at 10 uM incubated for 60 mins by Z'-lyte assay relative to control
[7] = target: Ephrin type-A receptor 1 (Homo sapiens) (UniProt P21709); assay: Inhibition of recombinant human GST-tagged EPHA1 (568 to 976 residues) expressed in baculovirus expression system using Tyr 02 as substrate at 10 uM incubated for 60 mins by Z'-Lyte assay relative to control
Chain of Ephrin type-A receptor 1 (Homo sapiens) (P21709 whole entry, the tested form may be a part): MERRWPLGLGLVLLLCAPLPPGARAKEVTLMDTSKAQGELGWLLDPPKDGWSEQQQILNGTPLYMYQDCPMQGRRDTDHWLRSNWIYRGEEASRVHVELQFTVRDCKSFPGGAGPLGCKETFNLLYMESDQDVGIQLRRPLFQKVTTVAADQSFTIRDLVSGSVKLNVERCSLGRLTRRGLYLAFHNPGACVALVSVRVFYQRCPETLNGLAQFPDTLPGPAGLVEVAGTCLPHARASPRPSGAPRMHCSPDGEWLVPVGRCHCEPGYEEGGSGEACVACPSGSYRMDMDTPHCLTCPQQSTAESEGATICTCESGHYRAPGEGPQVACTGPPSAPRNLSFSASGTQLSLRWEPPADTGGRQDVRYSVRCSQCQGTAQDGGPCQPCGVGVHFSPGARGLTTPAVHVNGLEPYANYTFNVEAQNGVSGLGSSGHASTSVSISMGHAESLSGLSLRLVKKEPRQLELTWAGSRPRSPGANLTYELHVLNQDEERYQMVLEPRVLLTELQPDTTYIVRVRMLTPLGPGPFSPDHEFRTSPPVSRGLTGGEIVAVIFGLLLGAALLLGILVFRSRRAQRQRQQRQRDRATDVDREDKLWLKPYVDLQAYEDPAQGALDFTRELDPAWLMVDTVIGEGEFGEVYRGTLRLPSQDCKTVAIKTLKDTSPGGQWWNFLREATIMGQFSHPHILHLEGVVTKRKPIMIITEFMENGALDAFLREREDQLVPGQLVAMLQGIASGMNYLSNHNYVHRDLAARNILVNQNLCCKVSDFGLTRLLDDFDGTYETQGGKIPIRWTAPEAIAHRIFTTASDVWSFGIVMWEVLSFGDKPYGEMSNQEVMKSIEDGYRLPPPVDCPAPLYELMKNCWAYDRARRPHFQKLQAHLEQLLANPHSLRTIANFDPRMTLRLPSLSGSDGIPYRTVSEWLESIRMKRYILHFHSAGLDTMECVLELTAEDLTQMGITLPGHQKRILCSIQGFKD

[8] = target: Insulin receptor-related protein (Homo sapiens) (UniProt P14616); assay: Inhibition of recombinant human GST-tagged IRR (944 to 1297 residues) expressed in baculovirus expression system using Tyr 04 as substrate at 10 uM incubated for 60 mins by Z'-lyte assay relative to control
[9] = target: Dual specificity protein kinase TTK (Homo sapiens) (UniProt P33981); assay: Inhibition of tracer 236 binding to recombinant human GST-tagged full length TTK expressed in baculovirus expression system at 10 uM incubated for 60 mins by Lanthascreen assay relative to control
Chain of Dual specificity protein kinase TTK (Homo sapiens) (P33981 whole entry, the tested form may be a part): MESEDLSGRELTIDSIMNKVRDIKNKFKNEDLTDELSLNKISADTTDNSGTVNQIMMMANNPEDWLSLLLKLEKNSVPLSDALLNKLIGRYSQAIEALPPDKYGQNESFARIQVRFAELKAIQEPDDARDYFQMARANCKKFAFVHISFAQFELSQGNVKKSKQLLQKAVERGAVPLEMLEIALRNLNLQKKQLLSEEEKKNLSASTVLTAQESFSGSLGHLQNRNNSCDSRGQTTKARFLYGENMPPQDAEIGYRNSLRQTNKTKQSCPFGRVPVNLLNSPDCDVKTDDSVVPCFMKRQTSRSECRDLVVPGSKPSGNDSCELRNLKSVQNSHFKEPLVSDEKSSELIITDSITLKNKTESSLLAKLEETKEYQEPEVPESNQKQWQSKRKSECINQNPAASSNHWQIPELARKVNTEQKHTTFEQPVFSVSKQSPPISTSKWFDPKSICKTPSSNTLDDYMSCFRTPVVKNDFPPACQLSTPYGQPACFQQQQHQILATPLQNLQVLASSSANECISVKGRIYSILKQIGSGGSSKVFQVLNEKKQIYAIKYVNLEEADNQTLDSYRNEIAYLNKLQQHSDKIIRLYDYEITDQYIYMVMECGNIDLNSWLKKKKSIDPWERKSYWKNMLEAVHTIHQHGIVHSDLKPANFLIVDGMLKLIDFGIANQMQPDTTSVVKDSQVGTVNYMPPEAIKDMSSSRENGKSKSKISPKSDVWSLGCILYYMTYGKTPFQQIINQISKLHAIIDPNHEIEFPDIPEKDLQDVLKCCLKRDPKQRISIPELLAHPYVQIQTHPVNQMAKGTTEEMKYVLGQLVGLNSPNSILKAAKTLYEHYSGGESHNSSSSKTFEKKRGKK

[10] = target: Epidermal growth factor receptor (Homo sapiens) (UniProt P00533); assay: Inhibition of recombinant human GST-tagged EGFR (668 to 1210 residues) expressed in baculovirus expression system using Tyr 4 as substrate at 10 uM incubated for 60 mins by Z'-Lyte assay relative to control
[11] = target: Receptor tyrosine-protein kinase erbB-4 (Homo sapiens) (UniProt Q15303); assay: Inhibition of recombinant human N-terminal GST-tagged ERBB4 (708 to 993 residues) expressed in baculovirus expression system using Tyr 01 as substrate at 10 uM incubated for 60 mins by Z'-Lyte assay relative to control
Chain of Receptor tyrosine-protein kinase erbB-4 (Homo sapiens) (Q15303 whole entry, the tested form may be a part): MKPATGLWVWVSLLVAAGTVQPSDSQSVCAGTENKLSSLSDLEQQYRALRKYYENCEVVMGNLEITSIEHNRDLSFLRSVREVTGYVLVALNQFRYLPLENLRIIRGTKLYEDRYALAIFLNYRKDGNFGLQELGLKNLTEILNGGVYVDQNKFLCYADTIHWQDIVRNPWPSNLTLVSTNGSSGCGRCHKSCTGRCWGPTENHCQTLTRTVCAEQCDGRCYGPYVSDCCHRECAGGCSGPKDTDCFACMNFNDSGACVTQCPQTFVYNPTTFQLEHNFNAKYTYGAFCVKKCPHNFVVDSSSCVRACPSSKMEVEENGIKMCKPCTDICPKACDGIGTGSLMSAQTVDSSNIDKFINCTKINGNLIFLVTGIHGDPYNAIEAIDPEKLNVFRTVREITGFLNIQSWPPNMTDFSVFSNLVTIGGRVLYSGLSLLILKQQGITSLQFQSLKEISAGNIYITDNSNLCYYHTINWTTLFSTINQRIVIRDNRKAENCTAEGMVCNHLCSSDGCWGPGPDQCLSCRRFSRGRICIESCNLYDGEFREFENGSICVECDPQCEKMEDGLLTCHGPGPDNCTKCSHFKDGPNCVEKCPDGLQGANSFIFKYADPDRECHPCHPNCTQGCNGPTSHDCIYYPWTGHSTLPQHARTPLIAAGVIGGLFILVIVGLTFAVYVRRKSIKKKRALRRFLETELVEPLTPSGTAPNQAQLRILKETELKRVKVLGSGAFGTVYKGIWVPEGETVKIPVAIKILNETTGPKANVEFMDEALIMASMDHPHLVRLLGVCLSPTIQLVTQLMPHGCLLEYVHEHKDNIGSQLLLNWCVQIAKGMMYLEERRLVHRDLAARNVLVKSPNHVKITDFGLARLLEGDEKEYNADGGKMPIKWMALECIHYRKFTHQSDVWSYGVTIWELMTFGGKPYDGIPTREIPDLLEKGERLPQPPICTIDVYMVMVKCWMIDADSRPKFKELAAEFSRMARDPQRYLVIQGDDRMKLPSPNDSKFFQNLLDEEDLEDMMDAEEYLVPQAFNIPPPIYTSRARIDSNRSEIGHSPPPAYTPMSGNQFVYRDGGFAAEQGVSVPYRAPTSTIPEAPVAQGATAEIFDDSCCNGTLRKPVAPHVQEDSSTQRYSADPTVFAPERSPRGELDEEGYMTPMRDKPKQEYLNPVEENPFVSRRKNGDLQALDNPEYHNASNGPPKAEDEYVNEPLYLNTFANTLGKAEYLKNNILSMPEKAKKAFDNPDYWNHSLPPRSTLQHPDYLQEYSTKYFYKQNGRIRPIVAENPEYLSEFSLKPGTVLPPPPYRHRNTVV

[12] = target: MAP kinase-activated protein kinase 3 (Homo sapiens) (UniProt Q16644); assay: Inhibition of recombinant human His-tagged full length MAPKAPK3 expressed in baculovirus expression system using Ser/Thr 04 as substrate at 10 uM incubated for 60 mins by Z'-lyte assay relative to control
Chain of MAP kinase-activated protein kinase 3 (Homo sapiens) (Q16644 whole entry, looked up): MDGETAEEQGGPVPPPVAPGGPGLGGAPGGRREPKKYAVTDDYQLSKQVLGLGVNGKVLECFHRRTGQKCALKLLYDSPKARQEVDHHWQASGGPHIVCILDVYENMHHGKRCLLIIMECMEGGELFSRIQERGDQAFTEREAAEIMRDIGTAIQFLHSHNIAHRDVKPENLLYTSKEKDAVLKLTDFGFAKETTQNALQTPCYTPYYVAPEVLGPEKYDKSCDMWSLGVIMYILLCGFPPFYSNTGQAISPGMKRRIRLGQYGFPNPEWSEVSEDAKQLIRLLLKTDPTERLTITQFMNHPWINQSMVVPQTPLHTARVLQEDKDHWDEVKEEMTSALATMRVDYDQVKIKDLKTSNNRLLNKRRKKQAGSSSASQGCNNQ

[13] = target: Tyrosine-protein kinase HCK (Homo sapiens) (UniProt P08631); assay: Inhibition of recombinant human N-terminal GST-tagged full length HCK expressed in baculovirus expression system using Tyr 02 as substrate at 10 uM incubated for 60 mins by Z'-Lyte assay relative to control
[14] = target: Mitogen-activated protein kinase kinase kinase 8 (Homo sapiens) (UniProt P41279); assay: Inhibition of recombinant human GST-tagged TPL2 (30 to 397 residues) expressed in baculovirus expression system using Ser/Thr 03 as substrate at 10 uM incubated for 60 mins by Z'-Lyte assay relative to control
Chain of Mitogen-activated protein kinase kinase kinase 8 (Homo sapiens) (P41279 whole entry, the tested form may be a part): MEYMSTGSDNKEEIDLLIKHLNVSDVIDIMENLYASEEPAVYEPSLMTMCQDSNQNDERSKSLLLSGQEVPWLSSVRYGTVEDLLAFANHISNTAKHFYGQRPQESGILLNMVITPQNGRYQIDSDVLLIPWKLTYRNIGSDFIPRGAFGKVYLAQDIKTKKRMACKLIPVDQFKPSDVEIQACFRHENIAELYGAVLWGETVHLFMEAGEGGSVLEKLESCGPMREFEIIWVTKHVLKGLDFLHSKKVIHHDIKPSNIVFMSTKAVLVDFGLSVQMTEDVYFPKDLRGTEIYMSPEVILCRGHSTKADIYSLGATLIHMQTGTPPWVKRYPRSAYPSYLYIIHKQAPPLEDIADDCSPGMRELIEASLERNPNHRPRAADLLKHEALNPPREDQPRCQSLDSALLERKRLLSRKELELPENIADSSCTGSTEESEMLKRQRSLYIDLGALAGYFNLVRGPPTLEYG

[15] = target: SRSF protein kinase 1 (Homo sapiens) (UniProt Q96SB4); assay: Inhibition of recombinant human His-tagged full length SRPK1 expressed in baculovirus expression system using Ser/Thr 18 as substrate at 10 uM incubated for 60 mins by Z'-Lyte assay relative to control
[16] = target: Myotonin-protein kinase (Homo sapiens) (UniProt Q09013); assay: Inhibition of tracer 236 binding to recombinant human GST-tagged full length DMPK expressed in baculovirus expression system at 10 uM incubated for 60 mins by Lanthascreen assay relative to control
[17] = target: MAP kinase-activated protein kinase 5 (Homo sapiens) (UniProt Q8IW41); assay: Inhibition of recombinant human His-tagged full length PRAK expressed in baculovirus expression system using Ser/Thr 04 as substrate at 10 uM incubated for 60 mins by Z'-lyte assay relative to control
[18] = target: Dual specificity tyrosine-phosphorylation-regulated kinase 3 (Homo sapiens) (UniProt O43781); assay: Inhibition of recombinant human GST-tagged full length DYRK3 expressed in baculovirus expression system using Ser/Thr 9 as substrate at 10 uM incubated for 60 mins by Z'-Lyte assay relative to control
[19] = target: Focal adhesion kinase 1 (Homo sapiens) (UniProt Q05397); assay: Inhibition of recombinant human GST-tagged full length FAK expressed in baculovirus expression system using Tyr 07 as substrate at 10 uM incubated for 60 mins by Z'-Lyte assay relative to control
[20] = target: Protein kinase C zeta type (Homo sapiens) (UniProt Q05513); assay: Inhibition of recombinant human untagged full length PKCzeta expressed in baculovirus expression system using Ser/Thr 07 as substrate at 10 uM incubated for 60 mins by Z'-lyte assay relative to control
[21] = target: Muscle, skeletal receptor tyrosine-protein kinase (Homo sapiens) (UniProt O15146); assay: Inhibition of recombinant human GST-tagged MUSK (519 to 869 residues) expressed in baculovirus expression system using Tyr 04 as substrate at 10 uM incubated for 60 mins by Z'-lyte assay relative to control
[22] = target: Dual specificity tyrosine-phosphorylation-regulated kinase 1A (Homo sapiens) (UniProt Q13627); assay: Inhibition of recombinant human GST-tagged full length DYRK1A expressed in baculovirus expression system using Ser/Thr 18 as substrate at 10 uM incubated for 60 mins by Z'-Lyte assay relative to control
[23] = target: Death-associated protein kinase 1 (Homo sapiens) (UniProt P53355); assay: Inhibition of recombinant human N-terminal GST-tagged DAPK1 (1 to 363 residues) expressed in baculovirus expression system using ZIPtide as substrate at 10 uM incubated for 60 mins by Adapta assay relative to control
[24] = target: Platelet-derived growth factor receptor alpha (Homo sapiens) (UniProt P16234); assay: Inhibition of recombinant human GST-tagged PDGFRalpha (550 to 1089 residues) expressed in baculovirus expression system using Tyr 04 as substrate at 10 uM incubated for 60 mins by Z'-lyte assay relative to control
Chain of Platelet-derived growth factor receptor alpha (Homo sapiens) (P16234 whole entry, the tested form may be a part): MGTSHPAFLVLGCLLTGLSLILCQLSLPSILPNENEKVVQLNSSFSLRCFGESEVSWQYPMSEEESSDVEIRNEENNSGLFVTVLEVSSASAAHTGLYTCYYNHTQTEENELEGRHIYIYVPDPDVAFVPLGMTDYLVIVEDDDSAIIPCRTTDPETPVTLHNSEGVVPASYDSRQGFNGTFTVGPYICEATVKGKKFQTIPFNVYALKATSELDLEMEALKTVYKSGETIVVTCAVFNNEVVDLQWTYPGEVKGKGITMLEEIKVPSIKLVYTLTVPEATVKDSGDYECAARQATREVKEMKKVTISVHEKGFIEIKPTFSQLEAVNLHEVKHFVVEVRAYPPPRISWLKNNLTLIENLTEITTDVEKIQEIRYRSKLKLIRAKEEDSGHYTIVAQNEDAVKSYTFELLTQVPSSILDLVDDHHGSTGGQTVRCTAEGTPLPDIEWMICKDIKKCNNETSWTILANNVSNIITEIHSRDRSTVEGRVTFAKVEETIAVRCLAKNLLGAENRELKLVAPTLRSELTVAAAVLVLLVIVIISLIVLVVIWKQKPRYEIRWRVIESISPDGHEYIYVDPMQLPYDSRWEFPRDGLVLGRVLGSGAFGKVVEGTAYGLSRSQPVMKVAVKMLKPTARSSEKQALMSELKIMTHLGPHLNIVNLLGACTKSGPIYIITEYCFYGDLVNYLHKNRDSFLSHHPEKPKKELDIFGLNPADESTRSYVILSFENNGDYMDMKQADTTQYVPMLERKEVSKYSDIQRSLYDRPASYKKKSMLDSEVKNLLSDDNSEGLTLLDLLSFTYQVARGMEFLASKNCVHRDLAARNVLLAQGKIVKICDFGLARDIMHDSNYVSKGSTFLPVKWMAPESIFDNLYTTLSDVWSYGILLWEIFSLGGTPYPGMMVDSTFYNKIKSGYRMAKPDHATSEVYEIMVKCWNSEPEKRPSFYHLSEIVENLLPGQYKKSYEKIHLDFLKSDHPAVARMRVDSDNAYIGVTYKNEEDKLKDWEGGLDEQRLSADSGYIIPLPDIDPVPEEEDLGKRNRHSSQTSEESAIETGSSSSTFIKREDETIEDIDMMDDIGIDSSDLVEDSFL

Q: Which results are given for CN1C(=O)[C@@H](NC(=O)c2n[nH]c3ncc(C(F)(F)C(F)(F)F)cc23)COc2ccccc21?
A: inhibition [1]: -4%; inhibition [2]: 5.5%; inhibition [3]: 10.5%; inhibition [4]: 5.5%; inhibition [5]: -1.5%; inhibition [6]: -5.5%; inhibition [7]: 6.5%; inhibition [8]: 6.5%; inhibition [9]: -6.5%; inhibition [10]: -5%; inhibition [11]: 9%; inhibition [12]: 0.5%; inhibition [13]: 4.5%; inhibition [14]: 6.5%; inhibition [15]: -2.5%; inhibition [16]: -1%; inhibition [17]: 5%; inhibition [18]: 7%; inhibition [19]: 0.5%; inhibition [20]: 5.5%; inhibition [21]: 17%; inhibition [22]: 3.5%; inhibition [23]: 0.5%; inhibition [24]: 2.5%
